pEC50, pIC50: −log10 of the molar value.
Assays:
[1] = target: T1, GluA2flip(Q) (A2Q cells) (Homo sapiens, UniProt P42262); assay: Calcium flux (Fluo-8) compound CRC assay on A2Q cells; type: cell-based
T1 construct: FLAG (C); expressed in transfected cells

[2] = target: T2, GluA2flip(Q)-CNIH3 (A2Q-C3 cells) (Homo sapiens, UniProt P42262); assay: Calcium flux (Fluo-8) glutamate potency fold-shift assay on A2Q-C3 cells; type: cell-based; parameters: FLAG (C); expressed in transfected cells; details: 30 μM compound
Description: (§1) In this assay, a maximal dose (30 μM) of each compound (Fig 4Di) was incubated on cells for 120 secs and then a CRC for glutamate ranging from 4 mM to 10 pM was collected (Fig 4Dii). A rightward shift of the CRC for glutamate to a higher EC50 indicates NAM activity and a leftward shift to a lower EC50 indicates PAM activity (Fig 4E). […] These compounds, considered active, were then evaluated as a CRC of the compounds in the calcium flux assay.

[3] = target: GluA2flip(R)-CNIH3 (A2R-C3 TetON HEK293 cells) (Homo sapiens, UniProt P42262, Q607R); assay: VSD assay (counter-screen, CRC) on A2R-C3 cells; details: for concentration at which PAM/NAM activity is evident in raw VSD traces, A2R-C3: raw VSD data
Description: Cell lines used in the VSD assays were TetON HEK293 cells. This was the parental cell line for all stable cell lines created. We used GluA2flip(R) TetON HEK cell clone #4 that doxycycline (DOX) dependently expresses GluA2flip(R) (A2R). The A2R cells were used as the base cell line to derive cell lines that co-express auxiliary subunits.
(§3) Greiner 384-pp round-bottom plates containing glutamate for the second add were dispensed by hand using a multi-channel pipet at 5X final concentration. A2R-stg cells were plated in 384-well BD PureCoat amine-coated plates (Corning Life Sciences) at 16k cells/well in DMEM medium supplemented with 10% heat-inactivated FBS and 100U/mL PenStrep antibiotic. […] Cells were incubated overnight (O/N) and washed 4 times in HBSS containing 20 mM HEPES, pH 7.4, on an ELX405CW liquid aspirator and dispenser (BioTek). Buffer was left in the wells and an equal amount of 2X FLIPR dye solution was added and incubated on the cells at room temperature for 45 min. Fluorescence signal was collected at 1 Hz using Ex. 480±20 nm/Em. 540±40 nm on a Hamamatsu Functional Drug Screening System 6000 (FDSS). Baseline signal was collected for 10 seconds followed by addition of 10 μl of 5X compound for a final concentration of 10 μM.
This assay was carried out in the same way as the VSD screening assay except a 10-point concentration curve, from 40 μM to 10 nM, was plated in triplicate for each compound on a single 384-well plate. Data were summarized by plotting them as %max GLUslope against log [compound] that was fit to a four-parameter logistical model. %max GLUslope is defined as a normalized GLUslope expressed as a percentage of the mean maximum GLUslope, defined as 100, where background mean vehicle control (VHLslope) were subtracted from both values on a per plate basis. Thus, %max GLU slope = (GLUslope-mean VHLslope/mean maxGLUslope-mean VHLslope).

[4] = target: GluA2flip(R)-stargazin (A2R-stg TetON HEK293 cells) (Homo sapiens, UniProt P42262, Q607R); assay: Voltage-sensitive dye (VSD) assay (primary screen, counter-screen, CRC) on A2R-stg cells; details: for concentration at which PAM/NAM activity is evident in raw VSD traces, A2R-stg: raw VSD data
Description: Cell lines used in the VSD assays were TetON HEK293 cells. […] We used GluA2flip(R) TetON HEK cell clone #4 that doxycycline (DOX) dependently expresses GluA2flip(R) (A2R). The A2R cells were used as the base cell line to derive cell lines that co-express auxiliary subunits.
as §3
Hits were selected from this initial screen using 4 different criteria, which we termed CMPDslope, CMPDmaxmin, GLUslope, and GLUmaxmin. […] GLUslope is the fitted slope of the increase in fluorescence within 10 sec after adding glutamate. GLUmaxmin is the difference in the minimum and maximum value in fluorescence signal reached in the 100 sec window after adding glutamate. Compounds were classified as hits if they differed by 3 standard deviations of the mean for each criterion. Tier 1 hits were classified as those that hit in the GLUslope, GLUmaxmin, and CMPDmaxmin windows. Tier 2 hits were classified as compounds that hit in the GLUslope window and either the GLUmaxmin or CMPDmaxmin window. Tier 3 hits were classified as those that hit in only the GLUslope or the GLUmaxmin window. Tier 4 hits were classified as compounds that hit only in the CMPD window, CMPDslope or CMPDmaxmin. Hit selection was further narrowed using the criterion that their signal must return to near baseline values before entering the glutamate add window.
VSD concentration response curves (CRCs): After the above counter-screens, compounds that remained positive were moved forward to collect complete CRCs for A2R-stg and A2R-C3 cell lines. This assay was carried out in the same way as the VSD screening assay except a 10-point concentration curve, from 40 μM to 10 nM, was plated in triplicate for each compound on a single 384-well plate. Data were summarized by plotting them as %max GLUslope against log [compound] that was fit to a four-parameter logistical model. %max GLUslope is defined as a normalized GLUslope expressed as a percentage of the mean maximum GLUslope, defined as 100, where background mean vehicle control (VHLslope) were subtracted from both values on a per plate basis. Thus, %max GLU slope = (GLUslope-mean VHLslope/mean maxGLUslope-mean VHLslope).

[5] = target: GluA2flip(Q)-GSG1L (A2Q-GSG cells) (Homo sapiens, UniProt P42262); assay: Calcium flux (Fluo-8) compound CRC assay on A2Q-GSG cells
Description: (§4) Cell lines used in the calcium flux assay were GluA2flip(Q)-FLAG + GSG1L-1D4 pTREt-Va dual expression in TetON HEK cell clone #20 (A2Q-GSG), GluA2flip(Q)-FLAG + CNIH3-1D4 pTREt-Va dual expression in TetON HEK cell clone #8 (A2Q-C3), GluA2flip(Q)-FLAG pTREt-Va in TetON HEK cell clone #5 (A2Q), and tethered GluA2flip(Q)-FLAG-stargazin [28] in pTREt-Va dual expression in TetON HEK cell clone #13 (A2Q-stg) (Summarized in Table 1).
(§5) Compounds that were selected as hits using the VSD assay were subsequently screened against the calcium permeable A2Q-stg and A2Q-C3 cell lines in a glutamate potency fold-shift assay using the calcium sensing dye Fluo-8 (AAT Bioquest cat #21080). This assay is used to measure how pretreatment with compounds shifts the EC50 of glutamate on A2Q-stg and A2Q-C3 cells. 30 μM of each compound was pre-incubated with the cells for 120 secs and then an 11-point glutamate CRC from 4 mM to 10 pM was applied to the cells for 180 sec. […] Greiner 384-pp round-bottom plates containing glutamate solutions were dispensed by hand using a multi-channel pipet at 5X final concentration. […] Sodium butyrate and DOX were added to the cells at 1 mM and 5 μg/mL, respectively, 24 hours before screening. A2Q-stg cells were induced with 10 μg/mL DOX. Cells were incubated O/N and washed 4 times in low calcium buffer on an ELX405CW liquid aspirator and dispenser (BioTek). Buffer was left in the wells and an equal amount of 4.6 μM (2X) Fluo-8 (AAT Bioquest cat #21080) solution with 2.5 mM probenecid was added and incubated on the cells at room temperature for 40 minutes. Probenecid was added to block dye efflux from the cells [29]. Dye was washed off with low calcium buffer using the ELX405CW (BioTek) and plates were immediately inserted into the FDSS (Hamamatsu). Fluorescence signal was collected at 1 Hz using Ex. 480±20 nm/Em. 540±40 nm. Baseline signal was collected for 10 seconds followed by addition of 20 μl of 2X compound for a final concentration of 30 μM. After 290 seconds, 10 μl of a 5X glutamate solution in high calcium buffer (10 mM HEPES, pH 7.4, 140 mM NaCl, 5 mM KCl, 1 mM MgCl2, 9 mM CaCl2, and 10 mM glucose) was added for 180 seconds.
(§6) These compound CRCs were applied to the cells 2 minutes before a 1mM glutamate stimulation. […] Normalized FDSS traces were curve fit to CRCs using the initial GLUslope (GLUslope1) in a 3–6 sec window after glutamate application. CRCs were also plotted for the traces’ area under the curve (AUC) in the GLUmaxmin window. […] Compounds were plotted as %max GLUslope against log [compound] and fit to a four-parameter logistical model as in the VSD.
(§7) Cells were loaded with Fluo-8 and excess dye was washed out. After 120 secs of pre-incubation with compound at concentrations ranging from 30 μM to 30 nM (Fig 4Bi), 1 mM glutamate was added (Fig 4Bii). In the calcium assay, 250 μM was used as the maxGLU dose because the GLUslope1 values decreased at higher concentrations of glutamate, making it the dose with the maximal GLUslope1 response. […] We measured GLUslope in three consecutive time windows, referred to as GLUslope1-3, because three phases were clearly detectable (Fig 4C). The final CRC curves were calculated from GLUslope1, obtained from the first 3–6 sec window.
(§8) The final compound CRC curves were calculated from GLUslope1. […] The AUC measures the accumulation of calcium instead of gating and sometimes produced a CRC fit when GLUslope1 could not derive an EC50 value.

[6] = target: T3, tethered GluA2flip(Q)-stargazin (A2Q-stg cells) (Rattus norvegicus, UniProt P19491); assay: Calcium flux (Fluo-8) compound CRC assay on A2Q-stg cells
Description: as §4, §5
These compound CRCs were applied to the cells 2 minutes before a 1mM glutamate stimulation. […] Normalized FDSS traces were curve fit to CRCs using the initial GLUslope (GLUslope1) in a 3–6 sec window after glutamate application. […]
Cells were loaded with Fluo-8 and excess dye was washed out. […] We measured GLUslope in three consecutive time windows, referred to as GLUslope1-3, because three phases were clearly detectable (Fig 4C). The final CRC curves were calculated from GLUslope1, obtained from the first 3–6 sec window.
The final compound CRC curves were calculated from GLUslope1. […]

[7] = target: T2, GluA2flip(Q)-CNIH3 (A2Q-C3 cells); assay: Calcium flux (Fluo-8) compound CRC assay on A2Q-C3 cells
Description: as §4, §5, §6, §7, §8

[8] = target: T3, tethered GluA2flip(Q)-stargazin (A2Q-stg cells); assay: Calcium flux (Fluo-8) glutamate potency fold-shift assay on A2Q-stg cells; type: cell-based; details: 30 μM compound
Description: as §1

[9] = target: T4, GluA2flip(R) (A2R TetON HEK293 cells) (Homo sapiens, UniProt P42262, Q607R); assay: VSD counter-screen on A2R cells; type: cell-based; details: 10 μM compound
T4 construct: expressed in transfected cells

[10] = target: T5, GluA2flip(R) (A2R cells) (Homo sapiens, UniProt P42262, Q607R); assay: Whole-cell electrophysiology with fast ligand application, A2R cells; type: cell-based; details: 40 μM compound
T5 construct: expressed in transfected cells
Description: (§2) A2R-stg cells were plated on HNO3 washed coverslips coated with 1:20000 poly-d-lysine (incubated for 20 min, washed with PBS 2x and media 1x) for 2 hours. They were induced with 5 μg/mL DOX for 24 hours before recording. A2R cells were plated on 1:60000 poly-d-lysine for 2 hours and induced with 7.5 μg/mL DOX for 30 hours before recording. The cells were lifted from the coverslip after whole cell configuration was achieved and brought in front of the theta tubing. […] Recording was done using a single channel of a Multiclamp700B Amplifier (Axon Instruments) operated by pClamp10 software. Signals were digitized using Digidata1440A (Axon Instruments) at a sampling rate of 50 kHz and low pass filtered at 2kHz. Borosilicate glass capillaries (O.D. 1.5 mm, I.D. 0.86 mm, Sutter) were pulled to manufacture electrodes with pipette resistances of 3.5–5 MΩ.
Standard solution without ligand was the external solution. The ligand solution contained 1mM glutamate in external solution, supplemented with 2mM glucose and 3mM NaCl to facilitate visualizing the interface of the two solutions and recording liquid junction potential after breaking the patch. The 10–90% rise time of liquid junction potential was around 300μsec. VU0627849 was dissolved in external solution containing 1 mM glutamate to a final concentration of 40 μM. […]

[11] = target: T6, GluA2flip(R)-stargazin (A2R-stg cells) (Homo sapiens, UniProt P42262, Q607R); assay: Whole-cell electrophysiology with fast ligand application, A2R-stg cells; type: cell-based; details: 40 μM compound
T6 construct: expressed in transfected cells
Description: as §2
Standard solution without ligand was the external solution. The ligand solution contained 1mM glutamate in external solution, supplemented with 2mM glucose and 3mM NaCl to facilitate visualizing the interface of the two solutions and recording liquid junction potential after breaking the patch. The 10–90% rise time of liquid junction potential was around 300μsec. VU0627849 was dissolved in external solution containing 1 mM glutamate to a final concentration of 40 μM. Tips of the tubing for each solution were positioned immediately before the opening of one compartment of the theta tubing. Drug-containing and drug-free glutamate solutions were switched using a manual valve located between the solution reservoir and theta glass tube. Solution speed was adjusted by the height of the reservoir using gravity.
We have conducted a preliminary electrophysiological investigation of the compound VU0627849. Using a fast ligand application system, A2R and A2R-stg cells were stimulated with 1mM glutamate using a 100 ms pulse followed by a 50 ms interval and a second 20 ms pulse to evaluate recovery from desensitization (Fig 10A and 10B red traces). […] These effects are drug specific because wash out of VU0627849 restored the original current (Fig 10B, black trace). We also see a small effect on A2R cells that was not seen in the VSD assay (Fig 10A blue trace). VU0627849 acted as a PAM on A2R-stg cells, corroborating our HTS data from the VSD assay.

T3 sequence (P19491 22-883): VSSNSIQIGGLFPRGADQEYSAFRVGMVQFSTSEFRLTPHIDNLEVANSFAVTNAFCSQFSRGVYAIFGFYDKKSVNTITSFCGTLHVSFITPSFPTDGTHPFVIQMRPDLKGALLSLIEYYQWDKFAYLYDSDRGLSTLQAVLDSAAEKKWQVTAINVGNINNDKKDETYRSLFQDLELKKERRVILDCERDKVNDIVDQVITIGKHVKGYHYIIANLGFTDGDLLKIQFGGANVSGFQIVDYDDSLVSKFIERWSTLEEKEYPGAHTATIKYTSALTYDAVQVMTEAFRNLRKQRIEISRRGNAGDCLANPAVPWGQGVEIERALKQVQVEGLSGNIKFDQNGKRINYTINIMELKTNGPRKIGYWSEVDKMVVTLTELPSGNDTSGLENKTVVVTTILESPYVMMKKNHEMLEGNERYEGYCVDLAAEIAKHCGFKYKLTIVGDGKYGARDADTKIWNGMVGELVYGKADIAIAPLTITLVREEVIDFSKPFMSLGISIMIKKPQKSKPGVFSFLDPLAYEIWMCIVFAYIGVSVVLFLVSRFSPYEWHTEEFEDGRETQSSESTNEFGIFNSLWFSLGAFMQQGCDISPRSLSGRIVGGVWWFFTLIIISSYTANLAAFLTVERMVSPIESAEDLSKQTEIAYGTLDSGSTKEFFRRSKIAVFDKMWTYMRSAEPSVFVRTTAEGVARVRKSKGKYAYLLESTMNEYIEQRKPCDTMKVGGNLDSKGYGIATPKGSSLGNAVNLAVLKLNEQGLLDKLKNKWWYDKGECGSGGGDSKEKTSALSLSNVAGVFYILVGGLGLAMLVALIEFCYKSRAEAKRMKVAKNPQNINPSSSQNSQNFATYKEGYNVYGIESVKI
T3 sequence (Q71RJ2 whole entry partner): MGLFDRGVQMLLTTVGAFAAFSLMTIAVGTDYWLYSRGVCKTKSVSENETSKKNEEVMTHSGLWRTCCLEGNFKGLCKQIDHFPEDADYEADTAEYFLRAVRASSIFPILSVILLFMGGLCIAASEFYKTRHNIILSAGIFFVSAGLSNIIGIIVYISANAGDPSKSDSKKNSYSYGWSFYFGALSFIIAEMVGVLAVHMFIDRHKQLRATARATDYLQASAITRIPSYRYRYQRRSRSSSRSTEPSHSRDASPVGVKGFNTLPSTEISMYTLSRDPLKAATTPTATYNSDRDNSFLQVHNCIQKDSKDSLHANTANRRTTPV
Sequence of GluA2flip(R)-CNIH3 (A2R-C3 TetON HEK293 cells) (P42262 25-883 isoform P42262-2 Q607R limits assumed): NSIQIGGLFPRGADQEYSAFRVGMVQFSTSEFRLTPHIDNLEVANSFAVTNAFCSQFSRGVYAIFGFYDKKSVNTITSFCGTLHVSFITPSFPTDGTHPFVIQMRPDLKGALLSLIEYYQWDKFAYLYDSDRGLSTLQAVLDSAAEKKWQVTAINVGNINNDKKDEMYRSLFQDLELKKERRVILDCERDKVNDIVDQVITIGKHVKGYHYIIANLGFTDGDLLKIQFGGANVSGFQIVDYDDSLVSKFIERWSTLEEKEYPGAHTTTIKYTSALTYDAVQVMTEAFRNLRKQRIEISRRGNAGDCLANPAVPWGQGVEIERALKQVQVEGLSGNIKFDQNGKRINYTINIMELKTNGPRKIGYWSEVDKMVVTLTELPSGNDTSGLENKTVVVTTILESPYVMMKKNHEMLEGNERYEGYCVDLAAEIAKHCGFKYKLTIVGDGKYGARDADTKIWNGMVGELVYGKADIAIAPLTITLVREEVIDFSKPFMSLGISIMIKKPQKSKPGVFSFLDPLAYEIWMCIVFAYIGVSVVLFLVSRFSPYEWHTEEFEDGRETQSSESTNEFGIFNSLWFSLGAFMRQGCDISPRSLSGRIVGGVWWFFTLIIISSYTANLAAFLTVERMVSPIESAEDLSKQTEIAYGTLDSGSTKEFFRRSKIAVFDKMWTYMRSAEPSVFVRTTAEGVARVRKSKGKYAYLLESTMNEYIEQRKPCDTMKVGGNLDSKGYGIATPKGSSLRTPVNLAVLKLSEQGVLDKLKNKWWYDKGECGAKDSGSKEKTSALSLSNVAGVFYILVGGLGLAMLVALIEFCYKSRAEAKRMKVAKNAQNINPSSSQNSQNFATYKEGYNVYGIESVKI
Sequence of GluA2flip(R)-CNIH3 (A2R-C3 TetON HEK293 cells) (Q8TBE1 whole entry partner): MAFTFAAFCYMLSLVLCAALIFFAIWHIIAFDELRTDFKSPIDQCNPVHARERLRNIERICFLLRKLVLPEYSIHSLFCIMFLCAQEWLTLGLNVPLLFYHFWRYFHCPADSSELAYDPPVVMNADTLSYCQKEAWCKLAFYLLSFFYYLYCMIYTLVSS
T6 sequence (P42262 25-883 isoform P42262-2 Q607R limits assumed): as the sequence (P42262 25-883 isoform P42262-2 Q607R limits assumed) above
T6 sequence (Q9Y698 whole entry partner): as the sequence (Q71RJ2 whole entry partner) above, with V257I, D306E, S307N, A313S counted along it
Sequence of GluA2flip(R)-stargazin (A2R-stg TetON HEK293 cells) (P42262 25-883 isoform P42262-2 Q607R limits assumed): as the sequence (P42262 25-883 isoform P42262-2 Q607R limits assumed) above
Sequence of GluA2flip(R)-stargazin (A2R-stg TetON HEK293 cells) (Q9Y698 whole entry partner): as the sequence (Q71RJ2 whole entry partner) above, with V257I, D306E, S307N, A313S counted along it
Sequence of GluA2flip(Q)-GSG1L (A2Q-GSG cells) (P42262 25-883 isoform P42262-2 limits assumed): as the sequence (P42262 25-883 isoform P42262-2 Q607R limits assumed) above, with R583Q counted along it
Sequence of GluA2flip(Q)-GSG1L (A2Q-GSG cells) (Q6UXU4 whole entry partner): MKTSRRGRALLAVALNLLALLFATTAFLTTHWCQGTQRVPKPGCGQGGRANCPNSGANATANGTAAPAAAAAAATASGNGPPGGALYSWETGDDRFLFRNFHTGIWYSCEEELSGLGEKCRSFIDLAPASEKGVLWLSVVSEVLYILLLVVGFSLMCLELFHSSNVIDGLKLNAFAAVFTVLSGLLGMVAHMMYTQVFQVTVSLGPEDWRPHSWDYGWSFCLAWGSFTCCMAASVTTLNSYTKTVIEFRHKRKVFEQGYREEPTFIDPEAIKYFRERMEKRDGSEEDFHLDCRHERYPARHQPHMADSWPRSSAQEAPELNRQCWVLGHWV
T2 sequence (P42262 25-883 isoform P42262-2 limits assumed): as the sequence (P42262 25-883 isoform P42262-2 Q607R limits assumed) above, with R583Q counted along it
T2 sequence (Q8TBE1 whole entry partner): as the sequence (Q8TBE1 whole entry partner) above
T1 sequence (P42262 25-883 isoform P42262-2 limits assumed): as the sequence (P42262 25-883 isoform P42262-2 Q607R limits assumed) above, with R583Q counted along it
T4 sequence (P42262 25-883 isoform P42262-2 Q607R limits assumed): as the sequence (P42262 25-883 isoform P42262-2 Q607R limits assumed) above
T5 sequence (P42262 25-883 isoform P42262-2 Q607R limits assumed): as above

PAM/NAM activity in calcium flux CRC assay, A2Q [1]	PAM/NAM categorisation in glutamate potency fold-shift assay, A2Q-C3 [2]	pIC50 [3]	PAM/NAM activity in VSD assay, A2R-C3 [3]	pEC50 [4]	PAM/NAM activity in VSD assay, A2R-stg [4]	PAM/NAM activity in calcium flux CRC assay, A2Q-GSG [5]	PAM/NAM activity in calcium flux CRC assay, A2Q-stg [6]	PAM/NAM activity in calcium flux CRC assay, A2Q-C3 [7]	PAM/NAM categorisation in glutamate potency fold-shift assay, A2Q-stg [8]	concentration at which PAM/NAM activity is evident in raw VSD traces, A2R-C3 [3]	concentration at which PAM/NAM activity is evident in raw VSD traces, A2R-stg [4]	SMILES	also measured
Slight NAM activity	NAM	5.49	NAM	5.38	PAM	PAM	Slight NAM activity	slight decrease in signal	NAM	–	–	COc1ccccc1CC(=O)NC1(c2nc(-c3ccsc3)no2)CCCCC1 [VU0539491]	–
PAM	–	–	PAM	6.07	PAM	PAM	PAM	PAM	–	≥ 2.5 µM	≥ 2.5 µM	O=C(Cc1cc(-c2ccc3c(c2)OCCO3)on1)NCc1ccccc1 [VU0627849]	Activity on A2R cells in counter-screens [9]: did not show any activity; pEC50 ([1]; CRC from GLUslope1, 1 mM glutamate, PAM, read-out: EC50 Ca2+ Sensing, A2Q): 4.85; positive change in %max GLUslope, A2Q ([1]; across calcium flux CRC): > 80%; pEC50 [3]: 6.07; pEC50 [5]: 4.60; positive change in %max GLUslope, A2Q-GSG ([5]; across calcium flux CRC): > 80%; increase in response of A2Q-stg cells ([6]; 7.5 and 30 μM compound): ~ 300 arbitrary fluorescence units (AFU); effect on A2R cells in electrophysiology [10]: small effect; pEC50 [7]: 5.51; positive change in %max GLUslope, A2Q-C3 ([7]; across calcium flux CRC): > 80%; PAM/NAM activity in electrophysiology, A2R-stg [11]: PAM; change in peak amplitude ([11]; 1 mM glutamate 100 ms pulse, preliminary): no change; amplitude in the second pulse of glutamate ([11]; second 20 ms pulse after 50 ms interval, preliminary): increased amplitude; resensitization ([11]; within 10 ms following initial activation and desensitization, preliminary): delayed increase in resensitization
–	right-shifts	6.06	NAM	–	NAM	–	negative trend	–	right-shifts	higher than 1 μM	submicromolar	CCCc1c(C(=O)NC2CCCCC2)nnn1-c1ccccc1 [VU0612951]	decrease in %max GLUslope across the CRC, A2R-C3 ([3]; VSD CRC 40 μM to 10 nM): ~ 40%; pIC50 [4]: 5.82; decrease in %max GLUslope across the CRC, A2R-stg ([4]; VSD CRC 40 μM to 10 nM): ~ 40%

— PMC5373622, “Screening for AMPA receptor auxiliary subunit specific modulators” (PLoS ONE, 2017)
